Measurements reported in patent US8642609B2, “Modulators of ATP-binding cassette transporters” (Vertex Pharmaceuticals Incorporated, priority 2003, dated 2014).

Molecular target: T1, ΔF508-CFTR (Homo sapiens, UniProt P13569, DEL508-508)
T1 construct: expressed in transfected cells
Assay: Membrane potential optical assay (FRET/VIPR), identification of correction compounds
Format: cell-based
Settings: for Emax: relative efficacy
Summary of the method: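 NIH3T3 cells stably expressing ΔF508-CFTR incubated 16 hrs at 37° C in serum-free medium with test compound; 27° C incubation as positive control. CFTR then activated with 10 μM forskolin plus 20 μM genistein in Cl^−-free medium; depolarization read by DiSBAC2(3)/CC2-DMPE FRET on VIPR.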

T1 sequence (P13569 with tags, fused parts or gaps DEL508-508): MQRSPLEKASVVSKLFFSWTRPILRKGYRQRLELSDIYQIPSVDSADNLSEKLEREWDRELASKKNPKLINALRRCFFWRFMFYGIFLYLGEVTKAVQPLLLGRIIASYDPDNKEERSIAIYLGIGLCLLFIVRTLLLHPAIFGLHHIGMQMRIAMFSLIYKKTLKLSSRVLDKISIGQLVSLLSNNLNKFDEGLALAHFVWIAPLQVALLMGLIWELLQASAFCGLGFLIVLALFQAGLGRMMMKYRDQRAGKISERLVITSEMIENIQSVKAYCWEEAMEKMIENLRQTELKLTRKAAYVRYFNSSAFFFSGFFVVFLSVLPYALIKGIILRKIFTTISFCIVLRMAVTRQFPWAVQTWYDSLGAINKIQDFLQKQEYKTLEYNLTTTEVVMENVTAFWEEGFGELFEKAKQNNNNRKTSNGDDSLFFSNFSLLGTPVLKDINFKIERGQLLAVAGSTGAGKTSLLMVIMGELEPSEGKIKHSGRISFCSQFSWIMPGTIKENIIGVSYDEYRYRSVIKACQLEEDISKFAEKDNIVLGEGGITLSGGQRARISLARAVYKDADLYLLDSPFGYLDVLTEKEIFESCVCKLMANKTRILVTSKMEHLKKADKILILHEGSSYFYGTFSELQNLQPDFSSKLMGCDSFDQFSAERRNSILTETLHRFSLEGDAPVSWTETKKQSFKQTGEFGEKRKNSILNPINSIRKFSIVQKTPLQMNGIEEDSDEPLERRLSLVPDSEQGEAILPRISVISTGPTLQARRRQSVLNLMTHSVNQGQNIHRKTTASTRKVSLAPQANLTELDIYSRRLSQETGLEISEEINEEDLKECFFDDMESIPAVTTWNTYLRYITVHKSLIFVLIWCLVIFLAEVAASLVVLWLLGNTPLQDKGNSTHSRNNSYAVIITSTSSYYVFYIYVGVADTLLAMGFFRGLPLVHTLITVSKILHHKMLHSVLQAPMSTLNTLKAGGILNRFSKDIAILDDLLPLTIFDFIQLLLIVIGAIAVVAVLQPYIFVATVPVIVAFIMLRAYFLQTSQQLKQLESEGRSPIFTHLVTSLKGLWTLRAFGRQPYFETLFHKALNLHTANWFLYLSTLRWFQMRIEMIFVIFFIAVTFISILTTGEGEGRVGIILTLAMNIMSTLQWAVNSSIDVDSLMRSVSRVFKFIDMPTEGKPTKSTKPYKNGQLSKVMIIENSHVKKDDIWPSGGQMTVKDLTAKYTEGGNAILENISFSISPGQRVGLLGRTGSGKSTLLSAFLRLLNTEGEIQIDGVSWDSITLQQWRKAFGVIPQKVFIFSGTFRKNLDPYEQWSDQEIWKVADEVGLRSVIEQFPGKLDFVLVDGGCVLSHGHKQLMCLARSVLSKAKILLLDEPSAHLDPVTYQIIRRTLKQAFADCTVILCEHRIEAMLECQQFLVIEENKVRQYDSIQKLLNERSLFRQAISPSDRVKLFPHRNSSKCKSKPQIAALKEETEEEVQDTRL

SMILES | EC50 | Emax
CC(c1nc(N(C)C)c2ccccc2n1)N1CCN(S(=O)(=O)c2ccc(Cl)cc2)CC1 (centres unmarked) [compound 233] | 25 to 60 µM | 25 to 100%
CC(c1nc(N2CCOCC2)c2ccccc2n1)N1CCN(S(=O)(=O)c2ccc(Cl)cc2)CC1 (centres unmarked) [compound 236] | 25 to 60 µM | 25 to 100%
CC(c1nc2ccccc2c(=O)n1C)N(C)CCNS(=O)(=O)c1ccc(Cl)cc1 (centres unmarked) [compound 238] | 25 to 60 µM | < 25%
CC(=O)c1ccc(S(=O)(=O)N2CCN(C(C)c3nc4ccccc4c(=O)n3C)CC2)cc1 (centres unmarked) [compound 239] | 25 to 60 µM | < 25%
CC(c1nc2ccccc2c(=O)n1C)N1CCN(S(=O)(=O)c2ccc(C(=O)O)cc2)CC1 (centres unmarked) [compound 240] | 25 to 60 µM | < 25%
CC(c1nc2ccccc2c(=O)n1C)N1CCN(S(=O)(=O)c2ccc(-c3ccccc3)cc2)CC1 (centres unmarked) [compound 242] | 25 to 60 µM | < 25%
CC(=O)Nc1nc(C)c(S(=O)(=O)N2CCN(C(C)c3nc4ccccc4c(=O)n3C)CC2)s1 (centres unmarked) [compound 243] | 25 to 60 µM | 25 to 100%
C=Cc1ccc(S(=O)(=O)N2CCN(C(C)c3nc4ccccc4c(=O)n3C)CC2)cc1 (centres unmarked) [compound 244] | 25 to 60 µM | 25 to 100%
COC(=O)c1ccccc1S(=O)(=O)N1CCN(C(C)c2nc3ccccc3c(=O)n2C)CC1 (centres unmarked) [compound 245] | 25 to 60 µM | < 25%
CC(c1nc2ccccc2c(=O)n1C)N1CCN(S(=O)(=O)c2cccc(C(=O)O)c2)CC1 (centres unmarked) [compound 246] | 25 to 60 µM | < 25%
CC(c1nc2ccccc2c(=O)n1C)N1CCN(S(=O)(=O)c2cccc(F)c2)CC1 (centres unmarked) [compound 248] | 25 to 60 µM | < 25%
COc1cccc(S(=O)(=O)N2CCN(C(C)c3nc4ccccc4c(=O)n3C)CC2)c1 (centres unmarked) [compound 249] | 25 to 60 µM | 25 to 100%
CC(c1nc2ccccc2c(=O)n1C)N1CCN(S(=O)(=O)c2ccc(C#N)cc2)CC1 (centres unmarked) [compound 250] | 25 to 60 µM | 25 to 100%
CC(c1nc2ccccc2c(=O)n1C)N1CCN(S(=O)(=O)c2cccc3cnccc23)CC1 (centres unmarked) [compound 251] | 25 to 60 µM | < 25%
CC(c1nc2ccccc2c(=O)n1C)N1CCN(S(=O)(=O)c2ccc3oc(=O)ccc3c2)CC1 (centres unmarked) [compound 252] | 25 to 60 µM | 25 to 100%
CC(c1nc2ccccc2c(=O)n1C)N1CCN(S(=O)(=O)c2ccccc2F)CC1 (centres unmarked) [compound 253] | 25 to 60 µM | 25 to 100%
CC(c1nc2ccccc2c(=O)n1C)N1CCN(S(=O)(=O)c2ccc(Oc3ccccc3)cc2)CC1 (centres unmarked) [compound 255] | 25 to 60 µM | < 25%
COC(=O)c1sccc1S(=O)(=O)N1CCN(C(C)c2nc3ccccc3c(=O)n2C)CC1 (centres unmarked) [compound 256] | 25 to 60 µM | < 25%

Continued, values first:

EC50 | Emax | SMILES
25 to 60 µM | 25 to 100% | CC(NC1CCN(S(=O)(=O)c2ccc(Br)cc2)C1)c1nc2ccccc2c(=O)n1C (centres unmarked) [compound 226]
25 to 60 µM | 25 to 100% | COc1nc(C(C)N2CCN(S(=O)(=O)c3ccc(Br)cc3)CC2)nc2ccccc12 (centres unmarked) [compound 227]
< 10 µM | > 100% | CCOc1nc(C(C)N2CCN(S(=O)(=O)c3ccc(Br)cc3)CC2)nc2ccccc12 (centres unmarked) [compound 228]
25 to 60 µM | 25 to 100% | CC(c1nc2ccccc2c(=O)n1C)N1CCN(S(=O)(=O)c2ccccc2Cl)CC1 (centres unmarked) [compound 229]
25 to 60 µM | < 25% | CC(=O)Nc1ccc(S(=O)(=O)N2CCN(C(C)c3nc4ccccc4c(=O)n3C)CC2)cc1 (centres unmarked) [compound 230]
< 10 µM | > 100% | CC(c1nc(OC2CCCC2)c2ccccc2n1)N1CCN(S(=O)(=O)c2ccc(Cl)cc2)CC1 (centres unmarked) [compound 231]
25 to 60 µM | 25 to 100% | CNc1nc(C(C)N2CCN(S(=O)(=O)c3ccc(Cl)cc3)CC2)nc2ccccc12 (centres unmarked) [compound 232]
10 to 25 µM | 25 to 100% | CCNc1nc(C(C)N2CCN(S(=O)(=O)c3ccc(Cl)cc3)CC2)nc2ccccc12 (centres unmarked) [compound 234]
< 10 µM | 25 to 100% | CCN(CC)c1nc(C(C)N2CCN(S(=O)(=O)c3ccc(Cl)cc3)CC2)nc2ccccc12 (centres unmarked) [compound 235]
< 10 µM | > 100% | CC(c1nc(N2CCCCC2)c2ccccc2n1)N1CCN(S(=O)(=O)c2ccc(Cl)cc2)CC1 (centres unmarked) [compound 237]
< 10 µM | > 100% | CC(c1nc2ccccc2c(=O)n1C)N1CCN(S(=O)(=O)c2ccc(Cl)c(Cl)c2)CC1 (centres unmarked) [compound 241]
10 to 25 µM | 25 to 100% | CC(c1nc2ccccc2c(=O)n1C)N1CCN(S(=O)(=O)c2ccc(Br)s2)CC1 (centres unmarked) [compound 247]
< 10 µM | 25 to 100% | CC(c1nc2ccccc2c(=O)n1C)N1CCN(S(=O)(=O)c2c(Cl)ccc3nonc23)CC1 (centres unmarked) [compound 254]
